Reference: ChEMBL document CHEMBL6134830, “Naturally inspired chimeric quinolone derivatives to reverse bacterial drug resistance” (Eur J Med Chem, 2025)
Activity calls are given as the source filed them. The rule behind the calls is not given here.

Tests used:
L929 = assay: Cytotoxicity against mouse L929 cells assessed as reduction in cell viability at 100 microg/mL incubated for 24 hrs by MTT assay; assay type: toxicity, cell-based; conditions: l929, 24 h, dose 100 µg/ml
Staphylococcus aureus [1] = assay: Antimicrobial activity against Methicillin-resistant Staphylococcus aureus assessed as reduction in bacterial growth at 4 times MIC measured for 0.5 to 24 hrs by time-kill kinetics assay; assay type: functional, organism-based; conditions: time 0.5-24 hrs
Cell membrane [2] = assay: Disruption of cell membrane in methicillin-resistant Staphylococcus aureus assessed as PI-positive bacteria at 8 times MIC measured after 30 mins by PI staining based flow cytometry analysis (reference value: 7.49 %); assay type: subcellular
Cell membrane [3] = assay: Disruption of cell membrane in methicillin-resistant Staphylococcus aureus at 4 times MIC measured after 4 hrs by scanning electron microscopic analysis; assay type: subcellular
Staphylococcus aureus [4] = assay: Antibacterial activity against methicillin-resistant Staphylococcus aureus infected in ICR mouse model of subcutaneous abscess assessed as effect on skin abscesses at 25 mg/kg, sc measured at 48 hrs post-injection; assay type: functional, organism-based
Staphylococcus aureus [5] = assay: Antibacterial activity against methicillin-resistant Staphylococcus aureus infected in ICR mouse model of subcutaneous abscess assessed as reduction in infiltration of inflammatory cells at 25 mg/kg, sc measured at 48 hrs post-injection by H and E/Masson staining based analysis; assay type: functional, organism-based
Mus musculus = assay: Anti-inflammatory activity against subcutaneous abscess ICR mouse model infected with methicillin-resistant Staphylococcus aureus assessed as reduction in TNF-alpha level at 25 mg/kg, sc measured at 48 hrs post-injection by ELISA method; assay type: functional, organism-based

`O=C(O)c1cn(C2CC2)c2cc(N3CCNCC3)c(F)cc2c1=O` [CIPROFLOXACIN] was tested, and the Activity (L929) was “Non-toxic”, the Activity (Staphylococcus aureus [1]) was “inactive” and the Activity (Cell membrane [2]) was 9.46%. For the same compound, the Activity (Cell membrane [3]) was “inactive”, the Activity (Staphylococcus aureus [4]) was “inactive” and the Activity (Staphylococcus aureus [5]) was “Active; Partial Reduction In Inflammation”. The Activity (Mus musculus) was “Active”.
